Measured values published in patent US20250186437A1, “CARBOLINE COMPOUNDS AND USE THEREOF” (PTC Therapeutics, Inc., priority 2021, published 2025).

What follows are molecules tested on MOLM-13 cells (assay: MOLM-13 Cell Proliferation Assay (indicator of DHODH inhibition)). Conditions: Homo sapiens, 72 Hours of culture, CellTiter-Glo, no uridine.
Format: cell-based
Procedure, shortened: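 Proliferation readout via CellTiter-Glo luminescence after 72 h compound treatment (37 °C, 5% CO2, 0.5% DMSO) of MOLM-13 cells seeded at 10^4 per well in RPMI 1640/10% FBS, used as a DHODH-inhibition indicator since these cells rely on de novo pyrimidine synthesis.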

Row | IC50 [nM] | Compound
1 | 9.4 | NS(=O)(=O)c1ccc(C2c3[nH]c4cc(F)c(Cl)cc4c3CCN2c2nccc(C(F)(F)F)n2)cc1 (stereo not shown) [Compound 115, 4-{6-chloro-7-fluoro-2-[4-(trifluoromethyl)pyrimidin-2-yl]-2,3,4,9-tetrahydro-1H-pyrido[3,4-b]indol-1-yl}benzene-1-sulfonamide]
2 | 6.7 | Cc1ccc(C2c3[nH]c4ccc(Cl)c(F)c4c3CCN2c2nc(C)c(F)c(C)n2)cc1 (stereo not shown) [Compound 116, 6-chloro-5-fluoro-2-(5-fluoro-4,6-dimethylpyrimidin-2-yl)-1-(4-methylphenyl)-2,3,4,9-tetrahydro-1H-pyrido[3,4-b]indole]
3 | 2 | Cc1nc(N2CCc3c([nH]c4ccc(Cl)c(F)c34)C2c2cccc(F)c2F)nc(C)c1F (stereo not shown) [Compound 117, 6-chloro-1-(2,3-difluorophenyl)-5-fluoro-2-(5-fluoro-4,6-dimethylpyrimidin-2-yl)-2,3,4,9-tetrahydro-1H-pyrido[3,4-b]indole]
4 | 1 | Cc1ccc(C2c3[nH]c4ccc(Cl)c(F)c4c3CCN2c2nc(C)c(F)c(C)n2)c(F)c1F (stereo not shown) [Compound 118, 6-chloro-1-(2,3-difluoro-4-methylphenyl)-5-fluoro-2-(5-fluoro-4,6-dimethylpyrimidin-2-yl)-2,3,4,9-tetrahydro-1H-pyrido[3,4-b]indole]
5 | 2.2 | Fc1cccc(C2c3[nH]c4ccc(Cl)cc4c3CCN2c2nccc(C(F)(F)F)n2)c1F (stereo not shown) [Compound 119, 6-chloro-1-(2,3-difluorophenyl)-2-[4-(trifluoromethyl)pyrimidin-2-yl]-2,3,4,9-tetrahydro-1H-pyrido[3,4-b]indole]
6 | 3.7 | COc1ccc(C2c3[nH]c4ccc(Cl)cc4c3CCN2c2nccc(C(F)(F)F)n2)c(F)c1F (stereo not shown) [Compound 120, 6-chloro-1-(2,3-difluoro-4-methoxyphenyl)-2-[4-(trifluoromethyl)pyrimidin-2-yl]-2,3,4,9-tetrahydro-1H-pyrido[3,4-b]indole]
7 | 24.6 | N#Cc1ccnc(N2CCc3c([nH]c4cc(F)c(Cl)cc34)C2c2ccc(C(F)(F)F)cc2)n1 (stereo not shown) [Compound 121, 2-{6-chloro-7-fluoro-1-[4-(trifluoromethyl)phenyl]-1,3,4,9-tetrahydro-2H-pyrido[3,4-b]indol-2-yl}pyrimidine-4-carbonitrile]
8 | 8.2 | CN(C)c1ccc(C2c3[nH]c4cc(F)c(Cl)cc4c3CCN2c2nccc(C(F)(F)F)n2)cn1 (stereo not shown) [Compound 122, 5-{6-chloro-7-fluoro-2-[4-(trifluoromethyl)pyrimidin-2-yl]-2,3,4,9-tetrahydro-1H-pyrido[3,4-b]indol-1-yl}-N,N-dimethylpyridin-2-amine]
9 | 12.1 | Cc1ccc(C2c3[nH]c4cc(F)c(Cl)cc4c3CCN2c2ncc(F)c(C)n2)cc1 (stereo not shown) [Compound 123, 6-chloro-7-fluoro-2-(5-fluoro-4-methylpyrimidin-2-yl)-1-(4-methylphenyl)-2,3,4,9-tetrahydro-1H-pyrido[3,4-b]indole]
10 | 8.6 | Cc1nc(N2CCc3c([nH]c4cc(F)c(Cl)cc34)C2c2cccc(F)c2F)ncc1F (stereo not shown) [Compound 124, 6-chloro-1-(2,3-difluorophenyl)-7-fluoro-2-(5-fluoro-4-methylpyrimidin-2-yl)-2,3,4,9-tetrahydro-1H-pyrido[3,4-b]indole]
11 | 3.2 | Cc1ccc(C2c3[nH]c4cc(F)c(Cl)cc4c3CCN2c2ncc(F)c(C)n2)c(F)c1F (stereo not shown) [Compound 125, 6-chloro-1-(2,3-difluoro-4-methylphenyl)-7-fluoro-2-(5-fluoro-4-methylpyrimidin-2-yl)-2,3,4,9-tetrahydro-1H-pyrido[3,4-b]indole]
12 | 21.3 | Cc1ccnc(N2CCc3c([nH]c4cc(F)c(Cl)cc34)C2c2ccc(N(C)C)nc2)n1 (stereo not shown) [Compound 126, 5-[6-chloro-7-fluoro-2-(4-methylpyrimidin-2-yl)-2,3,4,9-tetrahydro-1H-pyrido[3,4-b]indol-1-yl]-N,N-dimethylpyridin-2-amine]
13 | 0.9 | Cc1ccc(C2c3[nH]c4ccc(Cl)cc4c3CCN2c2nccc(C(F)(F)F)n2)c(F)c1F (stereo not shown) [Compound 128, 6-chloro-1-(2,3-difluoro-4-methylphenyl)-2-[4-(trifluoromethyl)pyrimidin-2-yl]-2,3,4,9-tetrahydro-1H-pyrido[3,4-b]indole]
14 | 7.6 | Cc1cc(C)nc(N2CCc3c([nH]c4cc(F)c(Cl)cc34)C2c2cccc(F)c2F)n1 (stereo not shown) [Compound 129, 6-chloro-1-(2,3-difluorophenyl)-2-(4,6-dimethylpyrimidin-2-yl)-7-fluoro-2,3,4,9-tetrahydro-1H-pyrido[3,4-b]indole]

Second part, the molecule before the results:

Row | Compound | IC50 [nM]
15 | CN(C)c1ncc(C2c3[nH]c4cc(F)c(Cl)cc4c3CCN2c2nccc(C(F)(F)F)n2)cn1 (stereo not shown) [Compound 95, 5-{6-chloro-7-fluoro-2-[4-(trifluoromethyl)pyrimidin-2-yl]-2,3,4,9-tetrahydro-1H-pyrido[3,4-b]indol-1-yl}-N,N-dimethylpyrimidin-2-amine] | 4.6
16 | Cc1ccc(C2c3[nH]c4cc(F)c(Cl)cc4c3CCN2c2nc(C)cc(C(F)(F)F)n2)cc1 (stereo not shown) [Compound 96, 6-chloro-7-fluoro-1-(4-methylphenyl)-2-[4-methyl-6-(trifluoromethyl)pyrimidin-2-yl]-2,3,4,9-tetrahydro-1H-pyrido[3,4-b]indole] | 1.9
17 | Cc1ccc(C2c3[nH]c4cc(F)c(Cl)cc4c3CCN2c2ncc(C(F)(F)F)cn2)cc1 (stereo not shown) [Compound 97, 6-chloro-7-fluoro-1-(4-methylphenyl)-2-[5-(trifluoromethyl)pyrimidin-2-yl]-2,3,4,9-tetrahydro-1H-pyrido[3,4-b]indole] | 15.3
18 | Fc1ccc(C2c3[nH]c4cc(F)c(Cl)cc4c3CCN2c2ncc(C(F)(F)F)cn2)cc1 (stereo not shown) [Compound 98, 6-chloro-7-fluoro-1-(4-fluorophenyl)-2-[5-(trifluoromethyl)pyrimidin-2-yl]-2,3,4,9-tetrahydro-1H-pyrido[3,4-b]indole] | 41.6
19 | CC(C)c1ccc(C2c3[nH]c4cc(F)c(Cl)cc4c3CCN2c2ncc(C(F)(F)F)cn2)cc1 (stereo not shown) [Compound 99, 6-chloro-7-fluoro-1-[4-(propan-2-yl)phenyl]-2-[5-(trifluoromethyl)pyrimidin-2-yl]-2,3,4,9-tetrahydro-1H-pyrido[3,4-b]indole] | 14
20 | N#Cc1ccc(C2c3[nH]c4cc(F)c(Cl)cc4c3CCN2c2nccc(C(F)(F)F)n2)cc1 (stereo not shown) [Compound 100, 4-{6-chloro-7-fluoro-2-[4-(trifluoromethyl)pyrimidin-2-yl]-2,3,4,9-tetrahydro-1H-pyrido[3,4-b]indol-1-yl}benzonitrile] | 6.4
21 | Cc1ncc(C2c3[nH]c4cc(F)c(Cl)cc4c3CCN2c2ncc(Cl)cn2)cn1 (stereo not shown) [Compound 101, 6-chloro-2-(5-chloropyrimidin-2-yl)-7-fluoro-1-(2-methylpyrimidin-5-yl)-2,3,4,9-tetrahydro-1H-pyrido[3,4-b]indole] | 110
22 | CN(C)c1ncc(C2c3[nH]c4cc(F)c(Cl)cc4c3CCN2c2ncc(Cl)cn2)cn1 (stereo not shown) [Compound 102, 5-[6-chloro-2-(5-chloropyrimidin-2-yl)-7-fluoro-2,3,4,9-tetrahydro-1H-pyrido[3,4-b]indol-1-yl]-N,N-dimethylpyrimidin-2-amine] | 19.6
23 | COC(=O)c1ccnc(N2CCc3c([nH]c4ccc(Cl)c(F)c34)C2c2ccc(C#N)cc2)n1 (stereo not shown) [Compound 104, methyl 2-[6-chloro-1-(4-cyanophenyl)-5-fluoro-1,3,4,9-tetrahydro-2H-pyrido[3,4-b]indol-2-yl]pyrimidine-4-carboxylate] | 30.4
24 | Cc1nc(N2CCc3c([nH]c4cc(F)c(Cl)cc34)C2c2ccc(F)cc2)ncc1F (stereo not shown) [Compound 105, 6-chloro-7-fluoro-2-(5-fluoro-4-methylpyrimidin-2-yl)-1-(4-fluorophenyl)-2,3,4,9-tetrahydro-1H-pyrido[3,4-b]indole] | 23.3
25 | CS(=O)(=O)c1ccc(C2c3[nH]c4cc(F)c(Cl)cc4c3CCN2c2ncc(F)cn2)cc1 (stereo not shown) [Compound 107, 6-chloro-7-fluoro-2-(5-fluoropyrimidin-2-yl)-1-[4-(methanesulfonyl)phenyl]-2,3,4,9-tetrahydro-1H-pyrido[3,4-b]indole] | 44.6
26 | Cc1ccc(C2c3[nH]c4ccc(Cl)c(F)c4c3CCN2c2ncc(F)c(C)n2)cc1 (stereo not shown) [Compound 109, 6-chloro-5-fluoro-2-(5-fluoro-4-methylpyrimidin-2-yl)-1-(4-methylphenyl)-2,3,4,9-tetrahydro-1H-pyrido[3,4-b]indole] | 5.6
27 | Cc1ccc(C2c3[nH]c4ccc(Cl)c(F)c4c3CCN2c2nc(C)cc(C#N)n2)cc1 (stereo not shown) [Compound 110, 2-[6-chloro-5-fluoro-1-(4-methylphenyl)-1,3,4,9-tetrahydro-2H-pyrido[3,4-b]indol-2-yl]-6-methylpyrimidine-4-carbonitrile] | 2.8
28 | Cc1cc(C#N)nc(N2CCc3c([nH]c4ccc(Cl)c(F)c34)C2c2ccc(F)cc2)n1 (stereo not shown) [Compound 111, 2-[6-chloro-5-fluoro-1-(4-fluorophenyl)-1,3,4,9-tetrahydro-2H-pyrido[3,4-b]indol-2-yl]-6-methylpyrimidine-4-carbonitrile] | 8.1
29 | Cc1nc(N2CCc3c([nH]c4cc(F)c(Cl)cc34)C2c2cccc(F)c2F)nc(C)c1F (stereo not shown) [Compound 112, 6-chloro-1-(2,3-difluorophenyl)-7-fluoro-2-(5-fluoro-4,6-dimethylpyrimidin-2-yl)-2,3,4,9-tetrahydro-1H-pyrido[3,4-b]indole] | 3.8
30 | Cc1nc(N2CCc3c([nH]c4ccc(Cl)c(F)c34)C2c2cccc(F)c2F)ncc1F (stereo not shown) [Compound 113, 6-chloro-1-(2,3-difluorophenyl)-5-fluoro-2-(5-fluoro-4-methylpyrimidin-2-yl)-2,3,4,9-tetrahydro-1H-pyrido[3,4-b]indole] | 2.6
31 | Cc1ccc(C2c3[nH]c4ccc(Cl)c(F)c4c3CCN2c2ncc(F)c(C)n2)c(F)c1F (stereo not shown) [Compound 114, 6-chloro-1-(2,3-difluoro-4-methylphenyl)-5-fluoro-2-(5-fluoro-4-methylpyrimidin-2-yl)-2,3,4,9-tetrahydro-1H-pyrido[3,4-b]indole] | 1.1
